PubChem BioAssay (NCI)
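Results reflect a 48-hour exposure of cells in 96-well plates to compound at five concentrations. Abbreviation: GI50, concentration required for 50% inhibition of growth. At the TGI there is no net growth.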

What was measured:
Assay in all cases: NCI anticancer screen, dose series, 48 h
786-0 renal = test system: 786-0 renal
BT-549 breast = test system: BT-549 breast
HCT-116 colon = test system: HCT-116 colon
HOP-62 NSCLC = test system: HOP-62 NSCLC
HS 578T breast = test system: HS 578T breast
IGROV1 ovarian = test system: IGROV1 ovarian
MALME-3M melanoma = test system: MALME-3M melanoma
NCI-H460 lung = test system: NCI-H460 lung
OVCAR-3 ovarian = test system: OVCAR-3 ovarian
U251 CNS = test system: U251 CNS

Row | SMILES | TGI (786-0 renal) [µM] | TGI (BT-549 breast) [µM] | TGI (HCT-116 colon) [µM] | TGI (HOP-62 NSCLC) [µM] | TGI (HS 578T breast) [µM] | TGI (IGROV1 ovarian) [µM] | TGI (MALME-3M melanoma) [µM] | TGI (NCI-H460 lung) [µM] | TGI (OVCAR-3 ovarian) [µM] | TGI (U251 CNS) [µM] | GI50 (HCT-116 colon) [µM] | GI50 (HS 578T breast) [µM] | GI50 (IGROV1 ovarian) [µM] | GI50 (MALME-3M melanoma) [µM] | GI50 (OVCAR-3 ovarian) [µM] | GI50 (U251 CNS) [µM] | GI50 (BT-549 breast) [µM]
1 | c1cnc(N2CCN(Cc3c[nH]c4ccccc34)CC2)nc1 | 31.9 | > 100 | > 100 | > 100 | > 100 | > 100 | > 100 | > 100 | > 100 | > 100 |  |  |  |  |  |  | 
2 | COC(OC)[C@@H]1OC[C@@H](O)[C@@H]1n1cnc2c(N)ncnc21 | > 100 | > 100 | > 100 | > 100 | > 100 | > 100 | > 100 | > 100 | > 100 | > 100 |  |  |  |  |  |  | 
3 | Fc1cccc(F)c1C1SCc2nc3ccc(Cl)cc3n21 (configuration not stated) | > 100 | > 100 | > 100 | > 100 | > 100 | > 100 | > 100 | > 100 | > 100 | > 100 |  |  |  |  |  |  | 
4 | O=C1C(CN2CCOCC2)CCCC1CN1CCOCC1 (configuration not stated) | 2.61 | 3.5 | 2.83 | > 100 | 75.9 | 17.3 | 2.04 | 49 | 8.21 | 45 |  |  |  |  |  |  | 
5 | CC1(C)CC(=O)C2=C(C1)OC1=C(CC(C)(C)CC1=O)C2c1ccccc1[N+](=O)[O-] (configuration not stated) | > 100 |  | > 100 | > 100 | > 100 | > 100 | > 100 | > 100 | > 100 | > 100 |  |  |  |  |  |  | 
6 | O=C(CCc1ccccc1)On1c(-c2ccccc2)nc2ccccc2c1=S | > 100 | > 100 | 8.81 | 31.5 | > 100 | > 100 | 22.6 | > 100 | > 100 | > 100 |  |  |  |  |  |  | 
7 | Clc1ccc(OCc2nn3c(CCc4nnc5sc(COc6ccc(Cl)cc6)nn45)nnc3s2)cc1 | > 100 |  | 85.4 | > 100 | > 100 | 55.1 |  | 51.4 | 65.8 | 54.6 |  |  |  |  |  |  | 
8 | Oc1[nH]c2ccccc2c1/C=c1/cc2c(c(-c3ccc(F)cc3)n1)=Nc1ccccc1-2 |  |  | 2.24 |  | 3.28 | 1.93 | 2.26 |  | 0.591 | 2.17 | 1.01 | 0.528 | 0.554 | 0.843 | 0.233 | 0.94 | 
9 | COc1cc(-c2ccccc2N)c2cccnc2c1OC | 14.9 | 22.2 | 11.9 | 19 | 11.9 | 11.1 | 30.4 | 43.4 | 16.1 | 17.7 |  |  |  |  |  |  | 
10 | CCOC(=O)C1=C(C)N(c2ccc(OC)cc2)C2(O)C=CC(=O)C3=C(O)c4ccccc4C(=O)C312 (configuration not stated) |  | 29 | 23.4 | 30.1 | 33.5 | 15.6 | 1.17 | 28 | 11.7 | 23.5 |  |  |  |  |  |  | 
11 | C[Si](C)(c1ccccc1)[C@H]1CCCC=C1CCNC1c2ccccc2CCc2ccccc21 | > 100 | > 100 | > 100 | > 100 | > 100 | > 100 | > 100 | > 100 | > 100 | > 100 |  |  |  |  |  |  | 
12 | O=C(NNc1nc(-c2ccccc2)cs1)C(F)(F)F | > 100 |  | > 100 | > 100 | 52.2 | > 100 | > 100 | > 100 |  | 98.7 |  |  |  |  |  |  | 
13 | O=C1c2cn[nH]c2C(c2ccccc2)N1c1ccccc1 (configuration not stated) | > 10 | > 10 | > 10 | > 10 | > 10 | > 10 | > 10 | > 10 | > 10 | > 10 |  |  |  |  |  |  | 
14 | O=c1cnn(CCOCP(=O)(O)O)c(=O)[nH]1 |  | > 100 |  | > 100 | > 100 | > 100 | > 100 | > 100 | > 100 | > 100 |  |  |  |  |  |  | 
15 | CCCC(CCN)(CCN)[N+](=O)[O-] | > 100 | > 100 | > 100 |  | > 100 | > 100 | > 100 | > 100 |  | > 100 |  |  |  |  |  |  | 
16 | COc1ccc(C(C2=C(O)COC2=O)c2cc3c(cc2O)OCO3)cc1OC (configuration not stated) | > 100 | > 100 | > 100 | > 100 | > 100 | > 100 | > 100 | > 100 | > 100 |  |  |  |  |  |  |  | 
17 | CN(C)/N=C1\CC(c2ccccc2)C(C#N)(C#N)C1(C#N)C#N (configuration not stated) | 42.3 |  | 39.8 | 59 | 75.1 | 45.3 | 34.2 |  |  | > 100 |  |  |  |  |  |  | 
18 | CC(C)(C)N(Cc1ccc2c(c1)OCO2)C(=O)/C=C\Sc1ccccc1 | > 100 | > 100 | > 100 | > 100 |  | > 100 |  |  | > 100 | > 100 |  |  |  |  |  |  | 
19 | Cc1cc(=O)[nH]c(NN2C(Cl)C(=O)C2c2cccc(Cl)c2)n1 (configuration not stated) |  |  |  | > 100 |  | 37.1 |  | 43.2 | 51.1 | > 100 |  |  |  |  |  |  | 
20 | CSc1c(C(=O)Nc2ccc(Cl)cc2)c(N)n(N)c(=O)c1C#N | > 100 | > 100 | > 100 |  | > 100 |  | > 100 | > 100 | > 100 | > 100 |  |  |  |  |  |  | 
21 | COc1ccc2c(OCc3nnc4ccc(-c5ccccc5)nn34)ccnc2c1 |  | > 100 |  |  | > 100 | > 100 | > 100 |  | > 100 |  |  | > 100 | > 100 | > 100 | > 100 |  | > 100
22 | O=C(CCc1ccccc1)ON1C(=S)C(c2ccccc2)(c2ccccc2)N=C1Sc1ccccc1 | > 100 | > 100 | > 100 | > 100 | > 100 | 55.5 | > 100 | > 100 | > 100 |  |  |  |  |  |  |  | 
